Measured values as given in patent US10434134B2, “Peptide treatment for inflammation and fibrosis” (The Regents of the University of California, priority 2015, dated 2019).
Values belong to the compound of their own block, whether it stands above or below them. Where a SMILES comes first, the peptide text is derived from it. Where no end group is shown, it is not given here. [ ]: non-standard residue; d: D form. Mpa = O=C(O)CCS

Experiments:
[1] = Plasma levels of peptide and MPR-intermediate after IV PEGylated-peptide 361332; type: in vivo; details: CD-1 mouse, n = 1
Text: Studies using the PEGylated-peptide 361332 are provided
Levels of Peptide and MPR-Intermediate in Plasma Samples

[2] = test system: primary mouse and human hepatocytes
Text: (§1) Assays were used in a step-wise manner to select the safest and most efficient peptides (including apoptosis assays in activated primary human liver myofibroblasts; cell-free caspase 8 activation assays; acute liver injury/fibrogenesis models; toxicology assays in highly differentiated, primary human hepatocyte cultures and in mice).

[3] = test system: Mouse Activated Liver Myofibroblasts; test: Cell death of activated primary mouse liver myofibroblasts in culture; type: cell-based
Mouse toxicity (in vivo) = details: for Mouse Toxicity (in vivo): 20 mg/kg
Text: as §1

[4] = test system: Human Activated Liver Myofibroblasts; test: Cell death of activated primary human liver myofibroblasts in culture; type: cell-based; parameters: concentration or dose not given beside the values
Text: as §1

[5] = test system: CCl4-induced liver fibrosis in mice; test: Chronic 16-wk CCl4 mouse model of liver fibrosis (Example 2); type: in vivo; details: for decrease of liver fibrosis / Liver fibrosis, quantification of the Sirius stain (percentage fibrosis/area): CCl4 16-wk; for decrease of liver fibrosis: 7 μg IP once per week from week-8; for Liver fibrosis, quantification of the Sirius stain (percentage fibrosis/area): 7 μg peptide linked to 420 μg PEG-30 kDa once a week from week-8, n=6/group
Experimental: FIGS. 2A-2B. High efficacy of the therapeutic PEG-30 kDa-peptides in a chronic mouse model of liver fibrosis. All groups of mice (except control) received CCl4 administration for 16-wk (n=6/group). The CCl4 treatment group received only the hepatotoxin, while the other groups also received the indicated therapeutic PEG-30 kDa-peptide (7 μg of peptide linked to 420 μg PEG-30 kDa once a week) starting at week-8. FIG. 2A. Liver fibrosis was determined by quantification of the Sirius stain (percentage fibrosis/area) as described (7; 25): control (0.02+/−0.01); lead peptide (0.8+/−0.7); alternate peptide 1 (2.1+/−1.0); alternate peptide 2 (3.5+/−1.2) and CCl4 (6.7+/−1.6%). P<0.0001 for lead peptide 1 and P<0.001 for alternate peptides 1 and 2. FIG. 2B. Liver fibrosis was detected histologically by the trichrome stain for liver fibrosis as it is the clinical standard. The control animals (receiving only vehicle control) had negligible fibrosis (stage 0-1/VI); animals receiving CCl4 for 16 weeks developed severe fibrosis (stage 5/VI or 6/VI; which would be clinically significant in patients); while animals receiving CCl4 for 16 weeks and also the lead PEG-30 kDa-peptide 1 starting at week-8 had minor fibrosis (stage 1-2/VI; which would not be clinically significant in patients).
The therapeutic lead PEG-peptides underwent a systematic analysis of efficacy and safety in a classical chronic liver fibrosis model (7; 15; 24; 38). CCl4 (a human hepatotoxin) was administered to mice for 16-wk as a classical model of liver fibrosis (7). The three selected therapeutic PEG-peptides were administered once a week IP (7 μg of peptide linked to PEG) starting at week 8, once severe liver fibrosis was already established. The efficacy of the three selected PEG peptides included quantitative analysis of liver fibrosis (7). CCl4 administration to mice for 16-wk induced liver cirrhosis (FIGS. 2A and 2B). […] This mimics the treatment given for several years to a patient with established severe liver fibrosis.
The Ac-Lys-D-Ala-D-Val-Asp-NH2 was administered IP (7 μg of peptide linked to PEG-30 kDa) once/week for an additional 4 or 8 weeks. The CCl4 administration continued for 4 or 8 weeks. The Ac-Lys-D-Ala-D-Val-Asp-NH2 peptide inhibited liver fibrosis by 8-fold.
The parent peptide inhibited liver fibrosis by only 2 to 3-fold.

[6] = test system: CCl4-induced acute liver injury in mice; test: Acute CCl4 liver injury and activation of liver myofibroblasts in mice (Example 1); type: in vivo, mouse; parameters: serum ALT: unit not given here; details: for minimizing acute liver injury and activation of myofibroblasts: compared with the lead PEG peptide
Experimental: FIG. 1. The therapeutic lead peptide inhibits the activation of liver myofibroblasts and liver injury that induces fibrosis following exposure to the human hepatotoxin CCl4. A single dose of CCl4 was administered to C/EBPβ-wt mice (4). Eight hours later, animals received an IP injection of the therapeutic lead peptide (5 μg of peptide linked to PEG). Animals were sacrificed at 30 hr after the CCl4 administration. The animals receiving only CCl4 had intense activation of myofibroblasts (as determined by α-SMA) (upper row) and severe liver injury (as assessed by standard clinical examination just before sacrifice); the lead peptide blocked the discoloration and granular appearance of severe liver injury. The livers of treated mice were similar to control (second row). The histopathology induced by CCl4 was activation of myofibroblasts (α-SMA), severe liver injury (H&E stain) with collapse of the architecture (Reticulin stain). The therapeutic PEG-30 kDa-peptide decreased both the activation of myofibroblasts and the injury to the liver.
To induce acute liver injury, a single dose of the human hepatotoxin Carbon Tetrachloride (CCl4) was administered to normal mice (4). Eight hours later, animals received an IP injection of the lead therapeutic PEG-30 kDa-peptide (5 μg of the peptide linked [peptide to PEG at 1:60] to the PEG-30 kDa). Animals were sacrificed after 30 hr, at the peak of hepatocyte death as measured by ALT (a clinical end-point used routinely in clinical practice and by the FDA in the evaluation of liver toxicity in human drug studies) (16). […] There was severe acute liver injury in animals receiving CCl4 but mild-to-moderate injury in animals receiving both CCl4 and the lead therapeutic compound (FIG. 1).

[7] = test system: Bleomycin-induced lung fibrosis in C/EBPβ-wt mice; test: Bleomycin mouse model of lung fibrosis, various administration routes (Example 11); type: in vivo; details: for decrease in lung fibrosis: days 10, 17 and 24
Experimental: C/EBPβ-wt mice received Bleomycin administration as described above. On day-10, once the fibrotic reaction is established, mice received i) PEG-30 kDa-Lys-DAla-DVal-Asp-NH2 intraperitoneally (IP) 10 μg of peptide linked to PEG, on days 10, 17 and 24); or ii) peptide PEG-30 kDa-Lys-DAla-DVal-Asp-NH2 by inhalation (mean particle size […]—which reaches efficiently the alveoli-, 800 μg of peptide on days 10, 17 and 24; specific inhalation parameters are shown in Table 2). The peptide was administered for less than 1 hour a day [on days 10, 17, and […]] via nose-only inhalation of the test material aerosol at a nominal concentration of 1.0 mg/L [800 μg/dose]; or iii) peptide PEG-30 kDa-Lys-DAla-DVal-Asp-NH2 by intratracheal instillation (40 μg of peptide on days 10, 17 and 24).
Control groups received sterile water instead of Bleomycin; peptide IP; peptide by inhalation; or peptide by intratracheal instillation. Animals were sacrificed on day 27. The left lung was inflated with fixative, analyzed by trichrome stain and quantified in its entirety by the Odyssey Visualization microscopy software protocol to minimize analytical errors as described previously (Ramamoorthy et al., 2009, American Journal of Physiology, Endocrinology and Metabolism 297: e392-401). The right lung was snap frozen in liquid nitrogen and used for IMH, immunoblots and qRT-PCR.

[8] = liver, 30 hr after CCl4, single IP 5 μg at 8 hr

Conc. (ng/mL) in plasma ([1]; 4 hours after IV PEGylated-peptide 361332, 7.5 mg/kg peptide equivalent): 1291 ng/mL
Conc. (ng/mL) in plasma ([1]; 8 hours after IV PEGylated-peptide 361332, 7.5 mg/kg peptide equivalent): 900 ng/mL
Conc. (ng/mL) in plasma ([1]; 24 hours after IV PEGylated-peptide 361332, 7.5 mg/kg peptide equivalent): 921 ng/mL
Conc. (ng/mL) in plasma ([1]; 48 hours after IV PEGylated-peptide 361332, 7.5 mg/kg peptide equivalent): 1523 ng/mL
Compound: CC(C)[C@@H](NC(=O)[C@@H](C)NC(=O)[C@H](CCCCN)NC(=O)CCS)C(=O)N[C@@H](CC(=O)O)C(N)=O [Mpr-Lys-DAla-DVal-Asp-NH2] ([Mpa]K[dA][dV]D-NH2)

Compound: Ac-Lys-Ala-Val-Asp-NH2 (Ac-KAVD-NH2) [Parent peptide, reference compound]
Hepatocyte Toxicity [20 ng/ml] [2]: No toxicity
Mouse Activated Liver Myofibroblasts Death Cell (%) [20 ng/ml] [3]: 89.5%
Mouse Toxicity (in vivo) (Mouse toxicity (in vivo)): No:
toxicity issues observed in mice (Mouse toxicity (in vivo); mouse, in vivo): no toxicity issues
Human Activated Liver Myofibroblasts Death Cell (%) [4]: 80.9%

Compound: PEG-30 kDa-Lys-DAla-DVal-Asp-NH2 [Lead therapeutic peptide]
decrease of liver fibrosis [5]: > 8 fold
Liver fibrosis, quantification of the Sirius stain (percentage fibrosis/area) [5]: 0.8+/−0.7%
Liver fibrosis stage, trichrome stain ([5]; CCl4 16 weeks, peptide starting at week-8): 1-2 /VI
Hepatocyte Toxicity [20 ng/ml] [2]: No toxicity
Mouse Activated Liver Myofibroblasts Death Cell (%) [20 ng/ml] [3]: 90.5%
Mouse Toxicity (in vivo) (Mouse toxicity (in vivo)): No:
serum ALT ([6]; 30 hr after CCl4, single IP treatment (5 μg peptide linked to PEG-30 kDa) 8 hr after CCl4): 6,754+/−905
acute liver injury severity ([6]; CCl4 plus peptide, 30 hr): mild-to-moderate
expression of α-SMA in the liver (activated liver myofibroblasts) ([6]; CCl4 plus peptide, 30 hr): minor expression
IL-6 mRNA [6, 8]: normal
TNF-α mRNA, increase from control values [6, 8]: 4 fold
albumin mRNA, decrease from control values [6, 8]: 2 fold
inhibition in lung alveolar epithelial cell apoptosis ([7]; IP): ~60%
surfactant protein-C (SFPC) expression by quantitative IHC ([7]; IP): essentially normal
decrease in lung fibrosis ([7]; IP 10 μg of peptide linked to PEG): ~60%
lung inflammation as determined by the expression of IL-23R (marker of Th-17 cells) ([7]; all treatments (IP, inhalation, intratracheal)): decreased
improvement of Tidal Volume ([7]; all treatments (IP, intratracheal instillation, inhalation), 14-day treatment): > 35%
inhibition in lung alveolar epithelial cell apoptosis ([7]; inhalation): ~60%
surfactant protein-C (SFPC) expression by quantitative IHC ([7]; inhalation): essentially normal
decrease in lung fibrosis ([7]; inhalation 800 μg of peptide): ~60%
efficacy on lung fibrosis ([7]; intratracheal instillation 40 μg of peptide, days 10, 17 and 24 (therapeutic positive control)): outstanding efficacy
TGFβ1 by RT-PCR ([7]; three peptide formulations): decreased
collagen α 1 by RT-PCR ([7]; three peptide formulations): decreased
Human Activated Liver Myofibroblasts Death Cell (%) [4]: 86.2%

Compound: Peg-30kDa-Lys-Ala-DVal-Asp-NH2 [Alternate therapeutic peptide 2]
decrease of liver fibrosis [5]: ~2 fold
Liver fibrosis, quantification of the Sirius stain (percentage fibrosis/area) [5]: 3.5+/−1.2%
Hepatocyte Toxicity [20 ng/ml] [2]: No toxicity
Mouse Activated Liver Myofibroblasts Death Cell (%) [20 ng/ml] [3]: 57.1%
minimizing acute liver injury and activation of myofibroblasts [6]: performed similarly to the lead PEG peptide
Human Activated Liver Myofibroblasts Death Cell (%) [4]: 72.3%

Compound: Peg-30kDa-Lys-DAla-Val- Asp-NH2 [Alternate therapeutic peptide 1]
decrease of liver fibrosis [5]: ~3 fold
Liver fibrosis, quantification of the Sirius stain (percentage fibrosis/area) [5]: 2.1+/−1.0%
Hepatocyte Toxicity [20 ng/ml] [2]: No toxicity
Mouse Activated Liver Myofibroblasts Death Cell (%) [20 ng/ml] [3]: 79.9%
minimizing acute liver injury and activation of myofibroblasts [6]: performed similarly to the lead PEG peptide
Human Activated Liver Myofibroblasts Death Cell (%) [4]: 67.9%

Compound: [dK]AV[dD]-NH2
Human Activated Liver Myofibroblasts Death Cell (%) [4]: 44.0%

Compound: [dK]A[dV]D-NH2
Human Activated Liver Myofibroblasts Death Cell (%) [4]: 30.6%
